Measurements from BigSolDB 2.1.

c1ccc2[nH]c(-c3cscn3)nc2c1
solubility (mole fraction)
Details | 283.15 K | 288.15 K | 293.15 K | 298.15 K | 303.15 K | 308.15 K | 313.15 K | 318.15 K | 323.15 K
in 2-butanone | 0.0012 | 0.00137 | 0.00151 | 0.00161 | 0.00186 | 0.00209 | 0.00223 | 0.00241 | 0.0025
in acetone | 0.000605 | 0.000711 | 0.000796 | 0.000936 | 0.00105 | 0.00119 | 0.00139 | 0.00153 | 0.00173
in acetonitrile | 0.000112 | 0.00012 | 0.000145 | 0.000149 | 0.000209 | 0.000253 | 0.000309 | 0.000339 | 0.000403
in ethanol | 0.00128 | 0.0014 | 0.00153 | 0.00163 | 0.00192 | 0.00213 | 0.00234 | 0.00274 | 0.00295
in ethyl acetate | 0.000435 | 0.000523 | 0.000638 | 0.000704 | 0.000825 | 0.000956 | 0.00109 | 0.00116 | 0.00127
in isobutanol | 0.000905 | 0.00104 | 0.00123 | 0.00144 | 0.00176 | 0.00202 | 0.0023 | 0.00258 | 0.00294
in isopropanol | 0.000699 | 0.000762 | 0.00089 | 0.000954 | 0.00118 | 0.00136 | 0.0016 | 0.00182 | 0.00198
in methanol | 0.00133 | 0.00142 | 0.00158 | 0.00167 | 0.00211 | 0.00219 | 0.00244 | 0.00279 | 0.00301
in methyl acetate | 0.000378 | 0.000515 | 0.000608 | 0.000636 | 0.000758 | 0.000822 | 0.000899 | 0.000953 | 0.00117
in n-butanol | 0.0016 | 0.0018 | 0.00193 | 0.0022 | 0.00266 | 0.0029 | 0.00337 | 0.00371 | 0.00416
in n-butyl acetate | 0.000445 | 0.000544 | 0.000646 | 0.000724 | 0.000881 | 0.00098 | 0.00114 | 0.00122 | 0.00136
in n-propanol | 0.00137 | 0.00148 | 0.00173 | 0.00181 | 0.00217 | 0.00246 | 0.00274 | 0.00303 | 0.00347
